{"source": "patent US20080154179A1", "about": "(priority 2005, published 2008)", "key": {"[1]": {"conditions": "cited from earlier work; for transdermal delivery into and across human skin: literature, primaquine: simple transdermal patch, full-thickness excised human skin"}, "[2]": {"conditions": "relative to base line; cited from earlier work"}, "[3]": {"experiment": "Stability of primaquine after exposure to iontophoresis by TLC of receptor compartment", "conditions": "receptor compartment contents, silica gel, n-butanol:acetic acid:water (5:3:2)"}, "[4]": {"conditions": "blood level; cited from earlier work"}, "[5]": {"experiment": "In-vitro transdermal iontophoretic delivery of primaquine patch through epidermal membranes in Mattek permeation device"}, "plasma cholinesterase": {"biological_target": "T1, plasma cholinesterase (Homo sapiens, UniProt P06276)", "T1 construct": "plasma samples that were treated with quinidine (20 μM); from tissue; host or cells: plasma", "T1 sequence (P06276 29-602)": "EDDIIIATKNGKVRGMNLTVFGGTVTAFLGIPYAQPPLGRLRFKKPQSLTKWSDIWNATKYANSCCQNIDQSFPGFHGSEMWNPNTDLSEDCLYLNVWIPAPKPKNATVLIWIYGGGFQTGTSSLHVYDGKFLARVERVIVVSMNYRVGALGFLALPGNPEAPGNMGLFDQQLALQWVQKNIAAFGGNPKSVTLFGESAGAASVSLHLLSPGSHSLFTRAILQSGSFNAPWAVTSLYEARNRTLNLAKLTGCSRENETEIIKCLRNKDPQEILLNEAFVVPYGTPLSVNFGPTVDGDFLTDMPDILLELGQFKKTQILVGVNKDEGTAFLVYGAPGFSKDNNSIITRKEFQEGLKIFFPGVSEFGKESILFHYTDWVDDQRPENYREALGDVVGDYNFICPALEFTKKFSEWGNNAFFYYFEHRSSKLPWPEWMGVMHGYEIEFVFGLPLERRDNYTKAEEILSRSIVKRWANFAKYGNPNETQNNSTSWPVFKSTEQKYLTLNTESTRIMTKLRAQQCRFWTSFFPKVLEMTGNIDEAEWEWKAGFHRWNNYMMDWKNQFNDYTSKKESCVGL", "experiment": "Selective inhibition of cholinesterase activity in plasma samples treated with quinidine", "type": "biochemical", "conditions": "quinidine 20 μM, BTC vs other substrate"}}, "note": "“Also recorded” adds a separate entry of the source.", "data": [{"smiles": "C[C@H]1c2cccc(O)c2C(=O)C2=C(O)[C@]3(O)C(=O)C(C(N)=O)=C(O)[C@@H](N(C)C)[C@@H]3[C@@H](O)[C@@H]21", "note": "[doxycycline]", "values": [{"measurement": "transdermal delivery into and across human skin", "setting": "[1]", "result": "significant amounts"}]}, {"smiles": "CC1CCC(C(C)C)C(O)C1", "note": "(centres unmarked) [menthol]", "values": [{"measurement": "increase in skin flux", "setting": "[2]", "result": "up to eight times the base line"}]}, {"smiles": "CN1CCCC1c1cccnc1", "note": "(centres unmarked) [nicotine]", "values": [{"measurement": "solubility", "setting": "physchem", "result": 50, "unit": "mg/mL"}]}, {"smiles": "COc1cc(NC(C)CCCN)c2ncccc2c1", "note": "(centres unmarked) [primaquine]", "values": [{"measurement": "stability of the primaquine molecule after exposure to iontophoresis (TLC)", "setting": "[3]", "result": "intact primaquine is present; also recorded: there is more than one species of molecule present"}, {"measurement": "therapeutic dosage (level) for the treatment of malaria", "setting": "[4]", "result": 0.03, "unit": "µg/mL"}, {"measurement": "passive diffusion before and after iontophoresis", "setting": "[5]; human epidermal membrane, no current, receptor PBS pH 7.4", "result": "Minimal passive diffusion"}, {"measurement": "amount delivered using electrotransport", "setting": "[5]; in 40 minutes", "result": 160, "unit": "µg"}, {"measurement": "transdermal delivery into and across human skin", "setting": "[1]", "result": "could deliver a therapeutic in vivo dose"}, {"measurement": "share of the 10 mg dose delivered passively each hour", "setting": "[1]; passive delivery, per hour", "result": "Approximately 5%"}, {"measurement": "amount that can be delivered transdermally", "setting": "[1]; within 24 hours, to achieve therapeutic plasma concentrations", "result": 10, "unit": "mg"}]}, {"smiles": "C=C[C@H]1C[N@@]2CC[C@H]1C[C@@H]2[C@@H](O)c1ccnc2ccc(OC)cc12", "note": "[quinidine]", "values": [{"measurement": "inhibitory effect on plasma cholinesterase activity", "setting": "plasma cholinesterase", "result": "the inhibitory effect was observed only when BTC was used"}]}]}
